Test results reported in US6291532A, “Use of N-aryl-2-hydroxyalkylamides for stimulating or inducing hair growth and/or arresting hair loss” (L'Oreal, priority 1996, dated 2001).
Read-outs that look alike come from different tables or passages of the source.

Assays:
potassium channels = experiment: IC50 of the compounds for their effect on the potassium channels; format: biochemical; conditions: for IC50: methods of Newgreen et al., Bray et al. and wickerden et al., concentration which decreases by 50% an induced pharmacological mechanism such as muscular contraction, read-out: IC50 K+ Channels; for opening effect for potassium channels (in words): summary in words of the table of Example 1
Protocol: (§1) The IC50 corresponds to the concentration which decreases by 50% either an induced pharmacological mechanism, such as muscular contraction,or the attachment of a molecule to its membrane receptor.
In order to determine the IC50 of the compounds for their effect on the potassium channels, they were tested according to the methods of Newgreen et al. (Br. J. Pharmacol., 1990, 100, 605-613), Bray et al. (Arch. Pharmacol., 1991, 344, 351-359) and wickerden et al. (Br. J. Pharmacol., 1991, 103, 1148-1152).
(§2) The values are given in μM

androgen receptors = molecular target: T1, androgen receptors (Rattus norvegicus, UniProt P15207); experiment: IC50 of the compounds for their effect on the androgen receptors; format: binding; conditions: for affinity for the androgen receptor (in words): summary in words of the table of Example 1
T1 construct: from tissue; host or cells: rat ventral prostate cytosol, inferred from the cited method
T1 sequence (P15207 1-902): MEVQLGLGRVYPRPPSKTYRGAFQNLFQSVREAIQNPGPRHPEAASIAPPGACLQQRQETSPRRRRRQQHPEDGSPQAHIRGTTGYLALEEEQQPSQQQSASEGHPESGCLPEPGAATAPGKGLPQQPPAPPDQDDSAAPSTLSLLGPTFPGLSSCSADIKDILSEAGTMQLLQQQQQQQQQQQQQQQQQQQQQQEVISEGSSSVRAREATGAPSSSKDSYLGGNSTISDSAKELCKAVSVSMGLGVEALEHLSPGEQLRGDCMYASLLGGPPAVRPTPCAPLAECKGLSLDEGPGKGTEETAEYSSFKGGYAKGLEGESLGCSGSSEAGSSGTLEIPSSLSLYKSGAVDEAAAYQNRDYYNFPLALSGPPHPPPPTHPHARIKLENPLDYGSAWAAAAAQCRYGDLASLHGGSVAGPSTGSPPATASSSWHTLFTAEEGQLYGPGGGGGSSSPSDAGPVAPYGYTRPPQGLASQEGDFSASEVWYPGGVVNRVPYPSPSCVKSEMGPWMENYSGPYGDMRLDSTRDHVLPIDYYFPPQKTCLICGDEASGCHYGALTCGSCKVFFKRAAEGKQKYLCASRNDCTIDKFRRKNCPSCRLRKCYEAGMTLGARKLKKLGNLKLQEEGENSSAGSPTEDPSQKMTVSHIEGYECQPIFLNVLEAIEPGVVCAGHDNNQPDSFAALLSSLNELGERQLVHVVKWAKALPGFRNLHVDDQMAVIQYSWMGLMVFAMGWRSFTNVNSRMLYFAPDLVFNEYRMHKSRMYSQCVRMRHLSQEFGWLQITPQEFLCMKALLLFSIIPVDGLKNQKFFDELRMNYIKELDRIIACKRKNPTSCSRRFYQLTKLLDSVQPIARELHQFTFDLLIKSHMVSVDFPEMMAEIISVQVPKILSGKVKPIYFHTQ
Protocol: as §1
In order to determine the IC50 of the compounds for their effect on the androgen receptors, they were tested according to the method of Schilling and Liao ("The Prostate", 1984, 5, 581-588).
as §2

[1] = method of Schilling and Liao, concentration which decreases by 50% the attachment of a molecule to its receptor, read-out: IC50 Androgen receptors

IC50 (androgen receptors; [1]) | Compound | IC50 (potassium channels) | opening effect for potassium channels (in words) (potassium channels) | IC50 (androgen receptors) | affinity for the androgen receptor (in words) (androgen receptors)
 | CC(O)(C(=O)Nc1ccc(C#N)c(C(F)(F)F)c1)C(F)(F)F (stereo not shown) [A, N-(4-cyano-3-(trifluoromethyl)phenyl)-3,3,3-trifluoro-2-hydroxy-2-methylpropionamide] | 0.5 µM | excellent opening effect | 1 µM | good affinity
 | CC(O)(C(=O)Nc1ccc(C#N)c(Cl)c1)C(F)(F)F (stereo not shown) [B, N-(3-chloro-4-cyanophenyl)-3,3,3-trifluoro-2-hydroxy-2-methylpropionamide] | 0.1 µM | excellent opening effect | 0.5 µM | good affinity
1 µM | CC(O)(C(=O)Nc1ccc(Cl)c(Cl)c1)C(F)(F)F (stereo not shown) [C, N-(3,4-dichlorophenyl)-3,3,3-trifluoro-2-hydroxy-2-methylpropionamide] | 2 µM | excellent opening effect |  | good affinity
 | CC(O)(C(=O)Nc1ccc(C#N)c(C(F)(F)F)c1)c1ccccc1 (stereo not shown) [D, N-(4-cyano-3-(trifluoromethyl)phenyl)-2-hydroxy-2-phenylpropionamide] | 3 µM | excellent opening effect | 3 µM | good affinity
 | CC(O)(C(=O)Nc1ccc(C#N)c(C#N)c1)C(F)(F)F (stereo not shown) [E, N-(3,4-dicyanophenyl)-3,3,3-trifluoro-2-hydroxy-2-methylpropionamide] | 1 µM | excellent opening effect | 10 µM | good affinity
> 10 µM | CC(O)(C(=O)Nc1ccc(C#N)cc1)C(F)(F)F (stereo not shown) [G, N-(4-cyanophenyl)-3,3,3-trifluoro-2-hydroxy-2-methylpropionamide, reference compound] | 10 µM | poor opening effect |  | poor affinity

Compound | IC50 (androgen receptors; [1]) | IC50 (potassium channels) | opening effect for potassium channels (in words) (potassium channels) | IC50 (androgen receptors) | affinity for the androgen receptor (in words) (androgen receptors)
CC(O)(C(=O)Nc1ccc([N+](=O)[O-])c(C(F)(F)F)c1)C(F)(F)F (stereo not shown) [F, N-(4-nitro-3-(trifluoromethyl)phenyl)-3,3,3-trifluoro-2-hydroxy-2-methylpropionamide, reference compound] | > 10 µM | > 10 µM | poor opening effect |  | poor affinity
